Experimental data: US8324390B2, “Tetrazole-substituted anthranilamides as pesticides” (Bayer CropScience AG, priority 2008, dated 2012)
Read-outs that look alike come from different tables or passages of the source.

Tests used:
[1] = log P determination by HPLC (EEC Directive 79/831 Annex V.A8); assay type: physicochemical
Procedure: The measurements were carried out using an Agilent 1100 LC system with a 50*4.6 Zorbax Eclipse C18 1.8 μm column (oven temperature 55° C., flow rate 2.0 ml/min).
The following mobile phases were used:
Mobile phase A: acetonitrile+1000 μl of formic acid/l
Mobile phase B: Millipore water+900 μl of formic acid/l

[2] = test system: caterpillars of the armyworm (Spodoptera frugiperda); assay: Spodoptera frugiperda test (SPODFR spray treatment); assay type: in vivo; conditions: Spodoptera frugiperda, foliar, read-out: effect in % (caterpillars killed)
Source text: (§1) Solvent: 78.0 parts by weight of acetone

[3] = test system: green peach aphid (Myzus persicae); assay: Myzus test (MYZUPE spray treatment); assay type: in vivo; conditions: Myzus persicae, foliar, read-out: effect in % (aphids killed)
Source text: Solvent: 78 parts by weight of acetone
as §1

[4] = test system: larvae of the mustard beetle (Phaedon cochleariae); assay: Phaedon test (PHAECO spray treatment); conditions: Phaedon cochleariae, in Brassica rapa, foliar, read-out: effect in % (beetle larvae killed)
[5] = reversed-phase HPLC, Zorbax Eclipse C18 column, by HPLC according to EEC Directive 79/831 Annex V.A8, read-out: log P
[6] = application rate 100 g/ha, maize leaf discs
[7] = application rate 100 g/ha, Chinese cabbage leaf discs
[8] = reversed-phase HPLC, Zorbax Eclipse C18 column, determined by HPLC according to EEC Directive 79/831 Annex V.A8, read-out: log P

Row | Structure (SMILES) | chromatographic logP [1, 5] | pest or weed control at 100 g/ha [2, 6] [%] | pest or weed control at 100 g/ha [3, 7] [%] | pest or weed control at 100 g/ha [4] [%] | chromatographic logP [1, 8] | chromatographic logP ([1]; log P) | pest or weed control at 100 g/ha ([2]; in Zea mays) [%] | pest or weed control at 100 g/ha ([3]; in Brassica rapa) [%] | chromatographic logP ([1]; by HPLC according to EEC Directive 79/831 Annex V.A8, read-out: log P)
1 | Cc1cc(Cl)cc(C(N)=O)c1NC(=O)c1cc(Cn2nnc(C(F)(F)F)n2)nn1-c1ncccc1Br [Example 330] | 2.76 | ≥ 80 | ≥ 80 | ≥ 80 | – | – | – | – | –
2 | Cc1cc(C#N)cc(C(=O)NC(C)(C)C)c1NC(=O)c1cc(Cn2nnc(C(F)(F)F)n2)nn1-c1ccccc1 [Example 428] | – | ≥ 80 | ≥ 80 | ≥ 80 | 3.72 | – | – | – | –
3 | Cc1cc(Br)cc(C(=O)NC(C)(C)C)c1NC(=O)c1cc(Cn2nnnc2C(F)(F)F)nn1-c1ncccc1Br [Example 507] | – | ≥ 80 | ≥ 80 | ≥ 80 | 3.65 | – | – | – | –
4 | CNC(=O)c1cc(C#N)cc(C)c1NC(=O)c1cc(Cn2nnc(C(F)(F)F)n2)nn1-c1ccccc1F [Example 318] | 2.92 | ≥ 80 | ≥ 80 | ≥ 80 | – | – | – | – | –
5 | CNC(=O)c1cc(Cl)cc(C)c1NC(=O)c1cc(Cn2nnc(C(F)(F)F)n2)nn1-c1cc(Cl)ccc1Cl [Example 313] | 3.93 | ≥ 80 | ≥ 80 | ≥ 80 | – | – | – | – | –
6 | Cc1cc(C#N)cc(C(=O)NC(C)C)c1NC(=O)c1cc(C(C)n2nnc(C(F)(F)F)n2)nn1-c1ncccc1Cl (centres unmarked) [Example 438] | – | – | – | ≥ 80 | – | 3.35 | ≥ 80 | ≥ 80 | –
7 | Cc1cc(I)cc(C(=O)NC2CC2)c1NC(=O)c1cc(Cn2nnnc2C(F)(F)F)nn1-c1ncccc1Br [Example 495] | – | ≥ 80 | ≥ 80 | ≥ 80 | 3.11 | – | – | – | –
8 | CCNC(=O)c1cc(C#N)cc(C)c1NC(=O)c1cc(Cn2nnnc2C(F)(F)F)nn1-c1ccccc1Cl [Example 492] | – | ≥ 80 | ≥ 80 | ≥ 80 | 3.01 | – | – | – | –
9 | Cc1cc(Cl)cc(C(=O)NCC#N)c1NC(=O)c1cc(Cn2nnc(C(F)(F)C(F)(F)C(F)(F)F)n2)nn1-c1ncccc1Cl [Example 8] | – | – | – | ≥ 80 | – | – | ≥ 80 | ≥ 80 | 3.65
10 | Cc1cc(Br)cc(C(=O)NC2CC2)c1NC(=O)c1cc(Cn2nnc(C(F)(F)F)n2)nn1-c1ncccc1Cl [Example 26] | – | – | – | ≥ 80 | – | 3.3 | ≥ 80 | ≥ 80 | –
11 | Cc1cc(Cl)cc(C(=O)NC(C)(C)C)c1NC(=O)c1cc(Cn2nnc(C(F)(F)F)n2)nn1-c1ncccc1Cl [Example 544] | – | – | – | ≥ 80 | – | 3.85 | ≥ 80 | ≥ 80 | –
12 | Cc1cc(Cl)cc(C(=O)NC2CC2)c1NC(=O)c1cc(Cn2nnc(C(F)(F)F)n2)nn1-c1ncccc1Br [Example 335] | 3.25 | ≥ 80 | ≥ 80 | ≥ 80 | – | – | – | – | –
13 | Cc1cc(C#N)cc(C(=O)NC(C)C(F)(F)F)c1NC(=O)c1cc(Cn2nnc(C(F)(F)F)n2)nn1-c1ncccc1Cl (centres unmarked) [Example 433] | – | – | – | ≥ 80 | – | 3.25 | ≥ 80 | ≥ 80 | –
14 | CNC(=O)c1cc(Br)cc(C)c1NC(=O)c1cc(Cn2nnnc2C(F)(F)F)nn1-c1ncccc1Cl [Example 170] | – | – | – | ≥ 80 | – | 2.72 | ≥ 80 | ≥ 80 | –
15 | CCNC(=O)c1cc(C#N)cc(C)c1NC(=O)c1cc(Cn2nnnc2C(F)(F)F)nn1-c1ncccc1Cl [Example 191] | – | – | – | ≥ 80 | – | 2.5 | ≥ 80 | ≥ 80 | –
16 | CCNC(=O)c1cc(Cl)cc(C)c1NC(=O)c1cc(Cn2nnc(C(F)(F)F)n2)nn1-c1ncccc1Br [Example 346] | 3.23 | ≥ 80 | ≥ 80 | ≥ 80 | – | – | – | – | –
17 | Cc1cc(C#N)cc(C(=O)NC(C)C2CC2)c1NC(=O)c1cc(Cn2nnnc2C(F)F)nn1-c1ncccc1Cl (centres unmarked) [Example 467] | – | – | – | ≥ 80 | – | 2.58 | ≥ 80 | ≥ 80 | –
